According to patent publication US7030150B2, “Benzimidazole compounds and antiviral uses thereof” (Trimeris, Inc., priority 2001, dated 2006):

Assays:
poliovirus type 1 = conditions: monkey kidney and HeLa cell cultures; cited from earlier work
picornaviruses = conditions: cited from earlier work
rhinoviruses = conditions: cited from earlier work

Compound: OC(c1ccccc1)c1nc2ccccc2[nH]1 (stereo not drawn) [2-(α-hydroxybenzyl)benzimidazole]
- inhibition of poliovirus type 1 (poliovirus type 1): inhibits
- antiviral activity against an assortment of picornaviruses (picornaviruses): active

Compound: FC(F)(F)c1cnc(N2CCCN(Cc3nc4ccccc4n3Cc3nc4ccccc4[nH]3)CC2)c(Cl)c1 [compound 215]
- CC50 (uninfected Hep2 cells): ≥ 100 µM

Compound: CCCN(Cc1nc2ccccc2n1Cc1c2ccccc2nc2ccccc12)CC1CC1 [compound 23]
- CC50 (uninfected Hep2 cells): ≥ 101 µM

Compound: CCCN(Cc1nc2ccccc2n1Cc1cc(F)cc2c1OCOC2)CC1CC1 [compound 24]
- CC50 (uninfected Hep2 cells): 82 µM

Compound: c1ccc2[nH]c(Cn3c(CN4CCC5CCCCC5C4)nc4ccccc43)nc2c1 (stereo not shown) [compound 234]
- CC50 (uninfected Hep2 cells): 24 µM

Compound: CSc1ccc(Cn2c(CN3CCCCC3)nc3ccccc32)cc1 [compound 61]
- CC50 (uninfected Hep2 cells): 20 µM

Compound: c1ccc2[nH]c(Cn3c(CNCCCN4CCOCC4)nc4ccccc43)nc2c1 [compound 124]
- CC50 (uninfected Hep2 cells): ≥ 100 µM

Compound: c1ccc2c(Cn3c(CN4CCCCC4)nc4ccccc43)c3ccccc3nc2c1 [compound 72]
- CC50 (uninfected Hep2 cells): ≥ 100 µM

Compound: CCCCCCN(C)Cc1nc2ccccc2n1Cc1nc2ccccc2[nH]1 [compound 88]
- CC50 (uninfected Hep2 cells): ≥ 100 µM

Compound: Clc1ccccc1CNCc1nc2ccccc2n1Cc1nc2ccccc2[nH]1 [compound 150]
- CC50 (uninfected Hep2 cells): ≥ 100 µM

Compound: CCN1CCN(Cc2nc3ccccc3n2Cc2nc3ccccc3[nH]2)CC1 [compound 230]
- CC50 (uninfected Hep2 cells): ≥ 100 µM

Compound: CCCCCCCCN(CCCCCCCC)Cc1nc2ccccc2n1Cc1nc2ccccc2[nH]1 [compound 106]
- CC50 (uninfected Hep2 cells): 74 µM

Compound: COc1ccc2[nH]c(C(O)C(O)c3nc4cc(OC)ccc4[nH]3)nc2c1 (stereo not shown) [1,2-(5-methoxy-2-benzimidazole)-1,2-ethanediol]
- inhibition of the cytopathic effect (rhinoviruses): 100%

Compound: c1csc(CNCc2nc3ccccc3n2Cc2nc3ccccc3[nH]2)c1 [compound 142]
- CC50 (uninfected Hep2 cells): ≥ 100 µM

Compound: COC(=O)CN(C)Cc1nc2ccccc2n1Cc1nc2ccccc2[nH]1 [compound 95]
- CC50 (uninfected Hep2 cells): ≥ 100 µM

Compound: COc1ccc(CCNCc2nc3ccccc3n2Cc2nc3ccccc3[nH]2)cc1 [compound 120]
- CC50 (uninfected Hep2 cells): ≥ 100 µM

Compound: c1ccc2[nH]c(Cn3c(CN4CCC(C5CCNCC5)CC4)nc4ccccc43)nc2c1 [compound 217]
- CC50 (uninfected Hep2 cells): ≥ 100 µM

Compound: O=C1C(=O)N(Cc2nc3ccccc3n2Cc2nc3ccccc3[nH]2)c2ccc(Br)cc21 [compound 235]
- CC50 (uninfected Hep2 cells): ≥ 100 µM

Compound: c1ccc2[nH]c(Cn3c(CNCc4ccc5c(c4)OCO5)nc4ccccc43)nc2c1 [compound 169]
- CC50 (uninfected Hep2 cells): ≥ 100 µM

Compound: COc1ccc(N(C)Cc2nc3ccccc3n2Cc2nc3ccccc3[nH]2)cc1 [compound 110]
- CC50 (uninfected Hep2 cells): ≥ 100 µM

Compound: C#CCN(C)Cc1nc2ccccc2n1Cc1nc2ccccc2[nH]1 [compound 90]
- CC50 (uninfected Hep2 cells): ≥ 100 µM

Compound: COc1cc(CNCc2nc3ccccc3n2Cc2nc3ccccc3[nH]2)cc(OC)c1 [compound 122]
- CC50 (uninfected Hep2 cells): ≥ 100 µM

Compound: Fc1ccc(CCNCc2nc3ccccc3n2Cc2nc3ccccc3[nH]2)cc1 [compound 167]
- CC50 (uninfected Hep2 cells): ≥ 100 µM

Compound: c1ccc2[nH]c(Cn3c(CNCC4CCCO4)nc4ccccc43)nc2c1 (stereo not shown) [compound 170]
- CC50 (uninfected Hep2 cells): ≥ 100 µM

Compound: c1ccc2[nH]c(Cn3c(CN4CCC5CCCCC5C4)nc4ccccc43)nc2c1 (stereo not shown) [compound 214]
- CC50 (uninfected Hep2 cells): ≥ 100 µM

Compound: C1=CCN(Cc2nc3ccccc3n2Cc2nc3ccccc3[nH]2)C1 [compound 201]
- CC50 (uninfected Hep2 cells): 19 µM

Compound: CCN(CC)CCNCc1nc2ccccc2n1Cc1nc2ccccc2[nH]1 [compound 162]
- CC50 (uninfected Hep2 cells): ≥ 100 µM

Compound: OC(c1nc2ccccc2[nH]1)C(O)c1nc2ccccc2[nH]1 (stereo not shown) [1,2-bis(2-benzimidazole)-1,2-ethanediol]
- antiviral activity against an assortment of picornaviruses (picornaviruses): active

Compound: c1ccc(C(CNCc2nc3ccccc3n2Cc2nc3ccccc3[nH]2)c2ccccc2)cc1 [compound 132]
- CC50 (uninfected Hep2 cells): ≥ 100 µM

Compound: Clc1ccc(CNCc2nc3ccccc3n2Cc2nc3ccccc3[nH]2)cc1Cl [compound 138]
- CC50 (uninfected Hep2 cells): 6.5 µM

Compound: c1ccc(CN2CCC(NCc3nc4ccccc4n3Cc3nc4ccccc4[nH]3)CC2)cc1 [compound 137]
- CC50 (uninfected Hep2 cells): 95 µM

Compound: C=CCN(C)Cc1nc2ccccc2n1Cc1nc2ccccc2[nH]1 [compound 83]
- CC50 (uninfected Hep2 cells): 58 µM

Compound: O=C1C(=O)N(Cc2nc3ccccc3n2Cc2nc3ccccc3[nH]2)c2ccc(F)cc21 [compound 237]
- CC50 (uninfected Hep2 cells): 65 µM

Compound: Fc1cc2c(c(Cn3c(CN4CCCCC4)nc4ccccc43)c1)OCOC2 [compound 73]
- CC50 (uninfected Hep2 cells): 101 µM

Compound: c1ccc(CC2=NCCN2Cc2nc3ccccc3n2Cc2nc3ccccc3[nH]2)cc1 [compound 204]
- CC50 (uninfected Hep2 cells): ≥ 100 µM

Compound: c1ccc(Oc2cccc(Cn3c(CN4CCCCC4)nc4ccccc43)c2)cc1 [compound 74]
- CC50 (uninfected Hep2 cells): 10 µM

Compound: CCCN(Cc1nc2ccccc2n1Cc1csc(C)n1)CC1CC1 [compound 21]
- CC50 (uninfected Hep2 cells): 50 µM

Compound: COc1ccc(CNCc2nc3ccccc3n2Cc2nc3ccccc3[nH]2)cc1 [compound 146]
- CC50 (uninfected Hep2 cells): ≥ 100 µM

Compound: c1ccc2[nH]c(Cn3c(CNC4CC5CCC4C5)nc4ccccc43)nc2c1 (stereo not shown) [compound 119]
- CC50 (uninfected Hep2 cells): ≥ 100 µM

Compound: O=C(c1ccco1)N1CCN(Cc2nc3ccccc3n2Cc2nc3ccccc3[nH]2)CC1 [compound 198]
- CC50 (uninfected Hep2 cells): ≥ 100 µM

Compound: CC1CC(C)CN(Cc2nc3ccccc3n2Cc2nc3ccccc3[nH]2)C1 (stereo not shown) [compound 205]
- CC50 (uninfected Hep2 cells): ≥ 100 µM

Compound: CC1CCCCN1CCCNCc1nc2ccccc2n1Cc1nc2ccccc2[nH]1 (stereo not shown) [compound 160]
- CC50 (uninfected Hep2 cells): 88 µM

Compound: FC(F)(F)Oc1ccccc1Cn1c(CN2CCCCC2)nc2ccccc21 [compound 62]
- CC50 (uninfected Hep2 cells): 34 µM

Compound: c1ccc2[nH]c(Cn3c(CN4CCCCCCC4)nc4ccccc43)nc2c1 [compound 233]
- CC50 (uninfected Hep2 cells): ≥ 100 µM

Compound: CC(C)N(Cc1nc2ccccc2n1Cc1c2ccccc2nc2ccccc12)C1CCCCC1 [compound 10]
- CC50 (uninfected Hep2 cells): ≥ 100 µM

Compound: C#CCCN(C)Cc1nc2ccccc2n1Cc1nc2ccccc2[nH]1 [compound 94]
- CC50 (uninfected Hep2 cells): 16 µM

Compound: CS(=O)(=O)c1ccc(Cn2c(CN3CCCCC3)nc3ccccc32)cc1 [compound 60]
- CC50 (uninfected Hep2 cells): ≥ 100 µM

Compound: c1ccc2nc(Cn3c(CN4CCCCC4)nc4ccccc43)ccc2c1 [compound 50]
- CC50 (uninfected Hep2 cells): 50 µM

Compound: O=C1CCCN1CCCNCc1nc2ccccc2n1Cc1nc2ccccc2[nH]1 [compound 141]
- CC50 (uninfected Hep2 cells): 35 µM

Compound: FC(F)(F)c1ccc(CNCc2nc3ccccc3n2Cc2nc3ccccc3[nH]2)cc1 [compound 151]
- CC50 (uninfected Hep2 cells): ≥ 100 µM

Compound: c1ccc2[nH]c(Cn3c(CNCCCN4CCCC4)nc4ccccc43)nc2c1 [compound 147]
- CC50 (uninfected Hep2 cells): ≥ 100 µM

Compound: c1ccc(CN2CCN(Cc3nc4ccccc4n3Cc3nc4ccccc4[nH]3)CC2)cc1 [compound 231]
- CC50 (uninfected Hep2 cells): 15 µM

Compound: c1ccc2[nH]cnc2c1 [benzimidazole]
- antiviral activity against an assortment of picornaviruses (picornaviruses): active

Compound: CCCN(Cc1nc2ccccc2n1Cc1ccc2ccccc2n1)CC1CC1 [compound 20]
- CC50 (uninfected Hep2 cells): 50 µM

Compound: c1ccc(CCNCc2nc3ccccc3n2Cc2nc3ccccc3[nH]2)nc1 [compound 125]
- CC50 (uninfected Hep2 cells): ≥ 100 µM

Compound: c1ccc2[nH]c(Cn3c(CN4CCCC4)nc4ccccc43)nc2c1 [compound 199]
- CC50 (uninfected Hep2 cells): ≥ 100 µM

Compound: COc1cccc(CCNCc2nc3ccccc3n2Cc2nc3ccccc3[nH]2)c1 [compound 135]
- CC50 (uninfected Hep2 cells): ≥ 100 µM

Compound: COC(=O)c1ccc2nc(CN3CCOCC3)n(Cc3nc4ccccc4[nH]3)c2c1 [compound 11]
- CC50 (uninfected Hep2 cells): 26 µM

Compound: CC(C)CCN(CCC(C)C)Cc1nc2ccccc2n1Cc1nc2ccccc2[nH]1 [compound 87]
- CC50 (uninfected Hep2 cells): ≥ 100 µM

Compound: C=C(C)CN(CC)Cc1nc2ccccc2n1Cc1nc2ccccc2[nH]1 [compound 89]
- CC50 (uninfected Hep2 cells): ≥ 100 µM
